Reference: US10189809B2, “SGC stimulators” (Ironwood Pharmaceuticals, Inc., priority 2010, dated 2019)
Like-named read-outs stand apart in the source and are kept apart here.

Experiments:
[1] = molecular target: Human soluble guanylate cyclase enzyme (hsGC) (Homo sapiens (Human), UniProt Q02108+Q02153); assay: Purified human sGC enzyme activity assay; assay type: biochemical; details: for sGC Enzyme (specific activity at 10 μM) / sGC Enzyme (fold increase at 10 μM without SNP): 10 μM compound; for sGC Enzyme (specific activity at 30 μM) / sGC Enzyme (fold increase at 30 μM without SNP): 30 μM compound
Procedure: Human soluble guanylate cyclase enzyme (hsGC) obtained from Enzo Inc. (P/N: ALX-201-177) was used to evaluate the activity of test compounds. The assay reactions contained 0.1 M Tris (pH 8.0), 0.5 mg/mL BSA (pH 8.0), 2 mM DTT, 2 mM MgCl2, 300 μM GTP, 1 mM 3-isobutyl-1-methylxanthine (IBMX) and 5 ng human soluble guanylate cyclase enzyme. Test compounds in DMSO were then added (2 μL, 10 or 30 μM final concentration) and incubated (200 μL, 96-well plate format) at 37° C. for 30 minutes. The controls were carried out using 2 μL DMSO. After the 30 minute incubation, the reaction was stopped with the addition of 200 μL of cold methanol. The plate was then centrifuged at 3,200 rpm for 10 minutes at room temperature. Supernatants (200 μL) were collected and transferred to a new 96 well plate for analysis.
An 8 point cGMP (Sigma-Aldrich P/N: G6129) standard curve was prepared in assay buffer ranging from 0.156-20 μM. Samples for the cGMP standard curve were then diluted with an equal volume of methanol resulting in final cGMP concentrations of 0.078-10 μM.
The cGMP standard curve was generated using GraphPad Prism Software.
Calculations: Specific Activity was determined by the amount of cGMP formed (nmoles) per mg of sGC per min. Enzyme “fold-change” was calculated by dividing Specific Activity for test compounds by Specific Activity of DMSO controls.

[2] = molecular target: soluble guanylate cyclase (sGC) (Homo sapiens (Human), UniProt Q02108+Q02153); assay: sGC-HEK-cGMP assay run with SNP incubation (HEK WC assay); assay type: cell-based; details: for EC50: in the presence of 10 uM SNP
Procedure: Human embryonic kidney cells (HEK293), endogenously expressing soluble guanylate cyclase (sGC), were used to evaluate the activity of test compounds. Compounds stimulating the sGC receptor should cause an increase in the intracellular concentration of cGMP. HEK 293 cells were seeded in Dulbecco's Modification of Eagle's Medium supplemented with fetal bovine serum (10% final) and L-glutamine (2 mM final) in a 200 μL volume at a density of 1×10^5 cells/well in a poly-D-lysine coated 96 well flat bottom plate and grown overnight at 37° C. Medium was aspirated and cells were washed with 1× Hank's Buffered Saline Salt Solution (200 μL). Cells were then incubated for 15 minutes at 37° C. with 0.5 mM 3-isobutyl-1-methylxanthine (200 μL). Test article and sodium nitroprusside were then added to the assay mixture (2 μL each) and incubated at 37° C. for 10 minutes. After the 10 minute incubation, the assay mixture was aspirated and 0.1M HCl (200 μL) was added to the cells. The plate was incubated at 4° C. for 30 minutes in the 0.1M HCl to stop the reaction and lysed the cells. The plates were then centrifuged at 1,200 g for 5 minutes at room temperature. Supernatants were collected and transferred to a new flat bottom 96 well plate for analysis. Vehicle controls were carried out using DMSO (1%). […] Samples were diluted with an equal volume of 1 M Ammonium Acetate (pH 7) to neutralize samples for better chromatography. […] EC50 values were calculated from concentration-response curves generated with GraphPad Prism Software.

[3] = read-out: HEK WC Assay (% Emax at 10 μM with 10 uM SNP)
[4] = read-out: HEK WC Assay (% Emax at 30 μM with 10 uM SNP)
[5] = read-out: HEK WC Assay (% Emax at 1 μM with 10 uM SNP)

Chain of Human soluble guanylate cyclase enzyme (hsGC) (Q02153 whole entry): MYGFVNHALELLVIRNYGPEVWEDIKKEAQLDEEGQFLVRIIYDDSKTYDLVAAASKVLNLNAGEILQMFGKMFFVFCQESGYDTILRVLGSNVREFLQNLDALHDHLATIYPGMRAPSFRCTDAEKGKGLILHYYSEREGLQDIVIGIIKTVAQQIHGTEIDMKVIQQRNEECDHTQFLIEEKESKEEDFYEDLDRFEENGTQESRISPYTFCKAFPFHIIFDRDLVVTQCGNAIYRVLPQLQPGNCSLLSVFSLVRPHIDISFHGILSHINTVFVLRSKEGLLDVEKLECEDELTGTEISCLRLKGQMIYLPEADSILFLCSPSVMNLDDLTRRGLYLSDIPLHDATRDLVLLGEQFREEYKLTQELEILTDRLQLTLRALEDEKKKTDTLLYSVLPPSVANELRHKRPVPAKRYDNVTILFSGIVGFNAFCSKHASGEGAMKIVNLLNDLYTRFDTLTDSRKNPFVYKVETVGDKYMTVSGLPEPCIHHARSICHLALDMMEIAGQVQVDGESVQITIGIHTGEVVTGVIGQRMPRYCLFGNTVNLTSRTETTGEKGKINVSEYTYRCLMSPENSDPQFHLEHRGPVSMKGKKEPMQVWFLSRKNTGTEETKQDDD
Chain of Human soluble guanylate cyclase enzyme (hsGC) (Q02108 whole entry): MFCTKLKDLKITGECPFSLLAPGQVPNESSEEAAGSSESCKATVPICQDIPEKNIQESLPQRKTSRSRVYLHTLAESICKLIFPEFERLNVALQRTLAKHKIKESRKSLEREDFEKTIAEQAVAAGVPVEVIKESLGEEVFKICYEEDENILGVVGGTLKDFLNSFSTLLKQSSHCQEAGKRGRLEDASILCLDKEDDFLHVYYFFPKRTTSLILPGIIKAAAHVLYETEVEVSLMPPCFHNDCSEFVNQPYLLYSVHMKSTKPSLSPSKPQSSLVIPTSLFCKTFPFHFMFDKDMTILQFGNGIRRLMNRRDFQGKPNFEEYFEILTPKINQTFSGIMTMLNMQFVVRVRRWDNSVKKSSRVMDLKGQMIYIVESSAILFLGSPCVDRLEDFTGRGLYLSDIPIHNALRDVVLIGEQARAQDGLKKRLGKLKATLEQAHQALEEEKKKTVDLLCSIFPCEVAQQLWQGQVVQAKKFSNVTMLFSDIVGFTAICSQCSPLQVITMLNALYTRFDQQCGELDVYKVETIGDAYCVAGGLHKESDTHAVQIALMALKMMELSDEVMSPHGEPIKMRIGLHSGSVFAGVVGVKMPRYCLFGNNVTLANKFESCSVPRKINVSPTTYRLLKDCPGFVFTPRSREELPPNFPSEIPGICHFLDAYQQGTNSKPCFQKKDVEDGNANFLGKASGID
Chain of soluble guanylate cyclase (sGC) (Q02153 whole entry): as the sequence (Q02153 whole entry) above
Chain of soluble guanylate cyclase (sGC) (Q02108 whole entry): as the sequence (Q02108 whole entry) above

sGC Enzyme (specific activity at 10 μM) [1]	sGC Enzyme (fold increase at 10 μM without SNP) [1]	sGC Enzyme (specific activity at 30 μM) [1]	sGC Enzyme (fold increase at 30 μM without SNP) [1]	Emax at 10 µM ([2]; read-out: HEK WC Assay (% Emax at 10 μM/with 10 uM SNP))	Emax at 30 µM ([2]; read-out: HEK WC Assay (% Emax at 30 μM/with 10 uM SNP))	Emax [2, 3]	Emax [2, 4]	EC50 [2]	Emax [2, 5]	SMILES
B (B = 50 to <100)	A (A = no increase to <2 fold increase)	B (B = 50 to <100)	A (A = no increase to <2 fold increase)	–	–	–	–	–	–	N#Cc1cccc(-c2cc(-c3ccccn3)nn2Cc2ccccc2F)c1 [Compound I-16]
B (B = 50 to <100)	A (A = no increase to <2 fold increase)	B (B = 50 to <100)	A (A = no increase to <2 fold increase)	–	–	–	–	–	–	N#Cc1ccc(-c2cc(-c3ccccn3)nn2Cc2ccccc2F)cc1 [Compound I-17]
–	–	–	–	0 to 10%	0 to 10%	–	–	–	–	CS(=O)(=O)c1ccc(-c2cc(-c3ccccn3)nn2Cc2ccccc2F)nc1 [Compound I-73]
–	–	–	–	–	–	40 to 60%	60 to 80%	< 20 µM	–	N#Cc1cnc(-c2cc(-c3ncco3)n(Cc3ccccc3F)n2)nc1O [Compound I-155]
–	–	–	–	–	–	40 to 60%	60 to 80%	< 20 µM	20 to 40%	CN(C)/C=N/c1cnc(-c2cc(-c3ccon3)n(Cc3ccccc3F)n2)nc1 [Compound I-249, N′-(2-(1-(2-fluorobenzyl)-5-(isoxazol-3-yl)-1H-pyrazol-3-yl)pyrimidin-5-yl)-N,N-dimethylformimidamide]
–	–	–	–	–	–	60 to 80%	60 to 80%	< 20 µM	20 to 40%	Nc1nc(-c2cc(-c3ccon3)n(Cc3ccccc3F)n2)ncc1N1Cc2ccccc2C1=O [Compound I-259]
–	–	–	–	–	–	0 to 10%	0 to 10%	300 to 600 µM	0 to 10%	Oc1cc(O)nc(-c2cc(-c3ccon3)n(Cc3ccccc3F)n2)n1 [Compound I-261]
–	–	–	–	–	–	60 to 80%	60 to 80%	< 20 µM	20 to 40%	Nc1cnc(-c2cc(-c3ccon3)n(Cc3ccccc3F)n2)nc1 [Compound I-262]
–	–	–	–	–	–	60 to 80%	60 to 80%	< 20 µM	20 to 40%	Oc1nc(-c2cc(-c3ccon3)n(Cc3ccccc3F)n2)ncc1Cl [Compound I-266]
–	–	–	–	–	–	60 to 80%	80 to 100%	–	20 to 40%	Fc1ccccc1Cn1nc(-c2ncc(F)c(S)n2)cc1-c1ccon1 [Compound I-267]
–	–	–	–	–	–	0 to 10%	10 to 20%	100 to 300 µM	0 to 10%	Nc1nc(-c2cc(-c3ncco3)n(Cc3ccccc3F)n2)ncc1N=C(c1ccccc1)c1ccccc1 [Compound I-269]
–	–	–	–	–	–	60 to 80%	80 to 100%	< 20 µM	40 to 60%	O=S(=O)(c1ccccc1)c1cnc(-c2cc(-c3ncco3)n(Cc3ccccc3F)n2)nc1O [Compound I-271]
–	–	–	–	–	–	60 to 80%	60 to 80%	–	–	Nc1ccnc(-c2cc(-c3ccco3)n(Cc3ccccc3F)n2)n1 [Compound I-284]
–	–	–	–	–	–	0 to 10%	10 to 20%	–	–	Fc1ccccc1Cn1nc(-c2ccccn2)cc1-n1cccn1 [Compound I-286]
–	–	–	–	–	–	40 to 60%	60 to 80%	< 20 µM	–	Fc1ccccc1Cn1nc(-c2nc(Cl)cc(-c3cccnc3)n2)cc1-c1ccon1 [Compound I-301]

Second part, the compound before the results:

SMILES	sGC Enzyme (specific activity at 10 μM) [1]	sGC Enzyme (fold increase at 10 μM without SNP) [1]	sGC Enzyme (specific activity at 30 μM) [1]	sGC Enzyme (fold increase at 30 μM without SNP) [1]	Emax at 10 µM ([2]; read-out: HEK WC Assay (% Emax at 10 μM/with 10 uM SNP))	Emax at 30 µM ([2]; read-out: HEK WC Assay (% Emax at 30 μM/with 10 uM SNP))	Emax [2, 3]	Emax [2, 4]	EC50 [2]	Emax [2, 5]
CS(=O)(=O)Nc1cnc(-c2cc(-c3ccon3)n(Cc3ccccc3F)n2)nc1N [Compound I-145]	–	–	–	–	–	–	20 to 40%	20 to 40%	–	–
CC(C)(O)c1cnc(-c2cc(-c3ncco3)n(Cc3ccccc3F)n2)nc1N [Compound I-146]	–	–	–	–	–	–	40 to 60%	40 to 60%	–	–
Nc1nc(-c2cc(-c3ccon3)n(Cc3ccccc3F)n2)ncc1NC(=O)C1CCCCC1 [Compound I-157]	–	–	–	–	–	–	100 to 120%	80 to 100%	–	–
CC(C)(Oc1ccccc1)C(=O)Nc1cnc(-c2cc(-c3ccon3)n(Cc3ccccc3F)n2)nc1N [Compound I-230]	–	–	–	–	–	–	20 to 40%	20 to 40%	60 to 100 µM	10 to 20%
O=S(=O)(c1cc(Cl)ccc1Cl)c1cnc(-c2cc(-c3ccon3)n(Cc3ccccc3F)n2)nc1O [Compound I-242]	–	–	–	–	–	–	20 to 40%	20 to 40%	60 to 100 µM	10 to 20%
C=CC(C)(C)C(=O)Nc1cnc(-c2cc(-c3ccon3)n(Cc3ccccc3F)n2)nc1N [Compound I-246]	–	–	–	–	–	–	100 to 120%	100 to 120%	< 20 µM	60 to 80%
CCC(C)(C)C(=O)Nc1cnc(-c2cc(-c3ccon3)n(Cc3ccccc3F)n2)nc1N [Compound I-247]	–	–	–	–	–	–	60 to 80%	80 to 100%	< 20 µM	20 to 40%
O=c1cc(O)oc2nc(-c3cc(-c4ccon4)n(Cc4ccccc4F)n3)nc(O)c12 [Compound I-248]	–	–	–	–	–	–	0 to 10%	0 to 10%	600 to 900 µM	0 to 10%
CC(C)(C)[S+]([O-])Nc1cnc(-c2cc(-c3ccon3)n(Cc3ccccc3F)n2)nc1N[S+]([O-])C(C)(C)C (stereo not shown) [Compound I-250]	–	–	–	–	–	–	10 to 20%	10 to 20%	100 to 300 µM	0 to 10%
CC(C)(C)S(=O)(=O)Nc1cnc(-c2cc(-c3ccon3)n(Cc3ccccc3F)n2)nc1N [Compound I-251]	–	–	–	–	–	–	20 to 40%	20 to 40%	20 to 40 µM	10 to 20%
CCCC(F)(F)C(=O)Nc1cnc(-c2cc(-c3ccon3)n(Cc3ccccc3F)n2)nc1N [Compound I-252]	–	–	–	–	–	–	40 to 60%	60 to 80%	< 20 µM	40 to 60%
C=C(C)C(=O)Nc1cnc(-c2cc(-c3ccon3)n(Cc3ccccc3F)n2)nc1N [Compound I-258]	–	–	–	–	–	–	60 to 80%	60 to 80%	< 20 µM	40 to 60%
CC1(C(=O)Nc2cnc(-c3cc(-c4ccon4)n(Cc4ccccc4F)n3)nc2N)CC1(Cl)Cl (stereo not shown) [Compound I-260]	–	–	–	–	–	–	100 to 120%	80 to 100%	< 20 µM	80 to 100%
[2H]C([2H])([2H])C(=O)Nc1cnc(-c2cc(-c3ccon3)n(Cc3ccccc3F)n2)nc1N [Compound I-263]	–	–	–	–	–	–	100 to 120%	100 to 120%	< 20 µM	40 to 60%
CC(C)(C)C(=O)Nc1cnc(-c2cc(-c3ccon3)n(Cc3ccccc3F)n2)nc1 [Compound I-264]	–	–	–	–	–	–	40 to 60%	0 to 10%	300 to 600 µM	20 to 40%
CC(C)(CO)C(=O)Nc1cnc(-c2cc(-c3ccon3)n(Cc3ccccc3F)n2)nc1N [Compound I-265]	–	–	–	–	–	–	60 to 80%	80 to 100%	< 20 µM	40 to 60%
CC(C)(CCl)C(=O)Nc1cnc(-c2cc(-c3ccon3)n(Cc3ccccc3F)n2)nc1N [Compound I-268]	–	–	–	–	–	–	100 to 120%	80 to 100%	< 20 µM	40 to 60%
CC(C)(C(=O)Nc1cnc(-c2cc(-c3ccon3)n(Cc3ccccc3F)n2)nc1N)n1cncn1 [Compound I-270]	–	–	–	–	–	–	40 to 60%	60 to 80%	< 20 µM	10 to 20%
Fc1ccccc1Cn1nc(-c2nc(Cl)cc(C(F)(F)F)n2)cc1-c1ccon1 [Compound I-273]	–	–	–	–	–	–	20 to 40%	20 to 40%	–	–
CN(C)C(=O)Oc1cnc(-c2cc(-c3ccon3)n(Cc3ccccc3F)n2)nc1 [Compound I-274]	–	–	–	–	–	–	60 to 80%	60 to 80%	–	20 to 40%
O=[N+]([O-])c1c(O)nc(-c2cc(-c3ccon3)n(Cc3ccccc3F)n2)nc1O [Compound I-282]	–	–	–	–	–	–	0 to 10%	0 to 10%	900 to 1200 µM	0 to 10%
CC(C)(C)OC(=O)n1c(=O)[nH]c2nc(-c3cc(-c4ccon4)n(Cc4ccccc4F)n3)ncc21 [Compound I-312]	–	–	–	–	–	–	20 to 40%	20 to 40%	40 to 60 µM	20 to 40%
